“And” between values parts separate entries of the source, which are not always exact repeats. Identical values can stand only once. “Also recorded” adds a separate entry of the source.
Tests used:
Format in all cases: in vivo, human
individuals with PD = assay: NR-SAFE: vital signs, body metrics, ECG
Protocol: At screening for trial entry, candidates underwent physical and neurological examination. Enrolled participants were assessed by physical visits by a movement disorder specialist at baseline (visit 1, V1), day 7 (V4), day 14 (V5), day 21 (V6) and day 28 (V7). At baseline and day 28 participants underwent additional assessment with the Movement Disorder Society Unified Parkinson's disease Rating Scale section I-IV (MDS-UPDRS). At all physical visits an electrocardiogram (ECG), vital parameters (blood pressure, pulse, weight, height) and blood samples were obtained. Additional blood samples were taken on day 3 (V2) and day 5 (V3) to assess safety. The participants were interviewed by telephone consultation by a study nurse on day 3 and day 35 to screen for additional adverse events. Participants were instructed to take their anti-Parkinson drugs as they normally would and no changes were made to anti-Parkinson drug treatment during the trial. Adverse events (AEs) were recorded by the investigating physician. These were then classified by severity according to the Common Terminology Criteria for Adverse Events v5.0 (CTCAE)^13 as either mild (1), moderate (2), severe (3), life-threatening (4) or death (5). The AE relation to the study drug was scored as unrelated (1), unlikely (2), possible (3), probable (4) or definitely (5). 13 Freites-Martinez, A., Santana, N., Arias-Santiago, S. & Viera, A. Using the Common Terminology Criteria for Adverse Events (CTCAE—Version 5.0) to Evaluate the Severity of Adverse Events of Anticancer Therapies. Actas Dermosifiliogr (Engl Ed) 112, 90-92 (2021).

[1] = tested on: individuals with newly diagnosed, drug-naïve PD; assay: NADPARK phase I trial: tolerability of NR therapy (1000 mg per day, 30 days) in PD
Protocol: The present inventors completed a phase I randomized, double blinded trial, aiming to assess the tolerability, cerebral bioavailability and molecular effects of NR therapy in PD. A total of 30 individuals with newly diagnosed, drug-naïve PD were randomized to NR 500 mg×2/day or placebo for 30 days (Cell Metab. 2022 Mar. 1; 34(3):396-407.e6).
NR is well-tolerated. […] NR achieves brain penetration. […] While a significant NR-induced increase in cerebral NAD levels was detected at the group level, this effect was not uniform at the individual level.

cerebral NAD levels = assay: NADPARK: cerebral NAD levels by 31P-MRS
Protocol: A-C: 31P-MRS was performed at baseline (v1) and after 30 days of treatment (v2). A: exemplary data from one subject showing voxel position. Spectra were acquired for each grid position. B (top): average processed spectra from multiple voxels (black) and the model fit (red). B (bottom): the model fit is composed of the convolution of all spectral contributions of a simulated dataset fitted to the experimental data. […] PCr: phosphocreatine. C: comparison of cerebral NAD levels in the placebo (PL) and NR groups at baseline (v1) and visit-2 (v2). […] Individual subjects are indicated by dots. Connecting lines show the change between v1 and v2. The black points and lines show the mean of each group. […] D: FDG-PET data from all subjects in the NR-group, showing the mean NR-Related Pattern (NRRP, top panel), PD-related pattern (PRDP, middle panel), and the overlap of the two (bottom panel). NR partially ameliorates the striatal and thalamic hypermetabolism of PD. E: Between visit changes showing increased NRRP expression in the NR versus the placebo group. […]
NR is well-tolerated. […] While a significant NR-induced increase in cerebral NAD levels was detected at the group level, this effect was not uniform at the individual level.
Cerebral NAD levels, such as NAD/α-ATP-α molar ratios, can be calculated by using ^31P spectroscopy data from magnetic resonance imaging and spectroscopy (MRI/S) e.g., as shown in FIG. 1B. […] For instance, an anatomical T1-weighted image with the following sequence parameters can be acquired to aid positioning of the ^31P-imaging slab: MPRAGE 3D T1-weighted sagittal volume, TE/TR/TI=2.26 ms/2.4 s/900 ms, acquisition matrix=256×256×192, FOV=256×256×192 mm3, 200 Hz/px readout bandwidth, flip angle=8 degrees and total acquisition duration of 5.6 minutes. ^31P spectroscopy data can then be acquired using a 3D chemical shift imaging (CSI) FID sequence with WALTZ4 1H decoupling and continuous wave nuclear Overhauser effect (NOE) enhancement (Peeters et al., NMR Biomed. 2019; 34: e4169). […]

NAD metabolome = assay: NADPARK: metabolomics, RNA-sequencing and cytokines in blood, muscle, CSF; conditions: NR 1000 mg daily
Protocol: A-C: 31P-MRS was performed at baseline (v1) and after 30 days of treatment (v2). A: exemplary data from one subject showing voxel position. Spectra were acquired for each grid position. B (top): average processed spectra from multiple voxels (black) and the model fit (red). B (bottom): the model fit is composed of the convolution of all spectral contributions of a simulated dataset fitted to the experimental data. […] PCr: phosphocreatine. C: comparison of cerebral NAD levels in the placebo (PL) and NR groups at baseline (v1) and visit-2 (v2). […] Individual subjects are indicated by dots. Connecting lines show the change between v1 and v2. The black points and lines show the mean of each group. […] D: FDG-PET data from all subjects in the NR-group, showing the mean NR-Related Pattern (NRRP, top panel), PD-related pattern (PRDP, middle panel), and the overlap of the two (bottom panel). NR partially ameliorates the striatal and thalamic hypermetabolism of PD. E: Between visit changes showing increased NRRP expression in the NR versus the placebo group. The red line indicates mean values before and after the treatment, black lines indicate individuals with a positive NAD response in the MRS analysis, grey lines indicate individuals without an NAD response in the MRS (*p=0.027, permutation test, 1000 iterations). […] G: Metabolomics in PBMCs, muscle, and CSF.
NR has widespread metabolic and regulatory effects. […] These findings indicate that NR supplementation increases both mitochondrial respiration and proteostasis—two hallmark pathogenic processes involved in PD.

[2] = V1 (baseline), NR 3000 mg daily group, ±sd
[3] = V7 (day 28), NR 3000 mg daily, ±sd

NC(=O)c1ccc[n+]([C@@H]2O[C@H](CO)[C@@H](O)[C@H]2O)c1 [NR, nicotinamide riboside]
Electrocardiography (ECG) (individuals with PD; NR 3000 mg daily, 4 weeks): no changes of clinical significance
changes in systolic or diastolic blood pressure, pulse or weight between visit 1 and visit 7 (individuals with PD; NR 3000 mg daily, 4 weeks): No significant changes in systolic or diastolic blood pressure, pulse or weight
patients who developed asymptomatic bradycardia (individuals with PD; NR group, 3000 mg daily, 4 weeks): Two
heart rate of patients with asymptomatic bradycardia (individuals with PD; NR group, 3000 mg daily, individual patients): 58 beats/min and 46 beats/min
Diastolic blood pressure (individuals with PD; [2]): 74.7 ± 8.49 mmHg
Pulse (individuals with PD; [2]): 64.2 ± 14.67 min⁻¹
Systolic blood pressure (individuals with PD; [2]): 122.1 ± 12.53 mmHg
Weight (individuals with PD; [2]): 79.38 ± 11.92 kg
Diastolic blood pressure (individuals with PD; [3]): 76.2 ± 6.81 mmHg
Pulse (individuals with PD; [3]): 61.1 ± 12.95 min⁻¹
Systolic blood pressure (individuals with PD; [3]): 122.2 ± 7.49 mmHg
Weight (individuals with PD; [3]): 79.38 ± 11.79 kg
Diastolic blood pressure, Δ (individuals with PD; Δ=V7−V1, NR 3000 mg daily, ±sd): 1.5 ± 8.31 mmHg
Pulse, Δ (individuals with PD; Δ=V7−V1, NR 3000 mg daily, ±sd): -3.1 ± 9.48 min⁻¹
Systolic blood pressure, Δ (individuals with PD; Δ=V7−V1, NR 3000 mg daily, ±sd): 0.1 ± 8.29 mmHg
Weight, Δ (individuals with PD; Δ=V7−V1, NR 3000 mg daily, ±sd): 0 ± 0.58 kg
serum homocysteine levels ([1]; NR 1000 mg daily, Phase I study): no change in serum homocysteine levels
compliance, tolerability, toxicity ([1]; NR 1000 mg per day, 30 days, PD): excellent compliance, tolerability and no signs of toxicity or adverse side effects
increase in cerebral NAD-levels (cerebral NAD levels; 1000 mg NR, treatment group, mean (SD=20%)): 38%
patients with no evidence of cerebral NAD response (cerebral NAD levels; NR 1000 mg per day, 30 days): three
change in cerebral NAD levels (31P-MRS) (cerebral NAD levels; NR 1000 mg per day, baseline vs 30 days, NR group): highly significant (paired t-test: P=0.016) increase in cerebral NAD levels
NAD-related metabolites in blood (PBMC), muscle and CSF (NAD metabolome; 30 days, metabolomics): highly significant (p<<0.001 for all tests) increases in the acid form of NAD (NAAD), and nicotinamide (Nam) degradation products; also recorded: highly significant increase in NAD-related metabolites in blood, muscle and CSF
RNA-sequencing in blood and muscle biopsy (NAD metabolome; NR group): highly significant (FDR<10^−8) upregulation of the mitochondrial, proteasomal and lysosomal pathways
inflammatory cytokines in the central nervous system (NAD metabolome; Phase I study): downregulates multiple inflammatory cytokines in the central nervous system

Source: patent US20250275995A1, “NICOTINAMIDE RIBOSIDE DOSAGE REGIMEN FOR TREATING PARKINSON'S DISEASE” (VESTLANDETS INNOVASJONSSELSKAP AS (VIS), priority 2022, published 2025)
